Results on 31 compounds are retold here after patent US20240002344A1, “COMPOUNDS, COMPOSITIONS AND METHODS FOR HISTONE LYSINE DEMETHYLASE INHIBITION” (FibroGen, Inc., priority 2020, published 2024).

One assay deals with T1, recombinant human KDM5B (Homo sapiens, UniProt Q9UGL1).
T1 sequence (Q9UGL1 374-755 limits assumed): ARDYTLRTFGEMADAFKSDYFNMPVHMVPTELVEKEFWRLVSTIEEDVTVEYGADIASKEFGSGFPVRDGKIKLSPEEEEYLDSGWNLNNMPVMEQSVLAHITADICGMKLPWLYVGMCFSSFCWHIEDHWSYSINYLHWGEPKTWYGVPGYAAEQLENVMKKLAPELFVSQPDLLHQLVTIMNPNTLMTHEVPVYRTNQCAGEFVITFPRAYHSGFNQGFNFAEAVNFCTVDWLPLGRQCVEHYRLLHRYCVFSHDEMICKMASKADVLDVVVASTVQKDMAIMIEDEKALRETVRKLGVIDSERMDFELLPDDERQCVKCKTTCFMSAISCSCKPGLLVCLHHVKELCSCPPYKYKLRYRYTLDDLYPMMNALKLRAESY
Description: 14CO2 capture enzymatic assay (decarboxylation of [1-14C] αKG), KDM5B. The assay is classed as biochemical. Particulars: 10 μM [1-14C] αKG, 90 μM non-labeled αKG, 50 μM peptide substrate, 37° C., 1 hour, final 1% DMSO. An outline of the steps:
(§1)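 Truncated recombinant human KDM5B (H3K4me3 peptide) or KDM4A (H3K9me3 peptide), 50 μM peptide, with 10 μM [1-14C]αKG plus 90 μM unlabeled αKG, 10 μM Fe(SO4), 2 mM ascorbate in pH 7.4 HEPES, 1 h at 37 °C, 1% DMSO. Released 14CO2 trapped on Ba(OH)2 filter; IC50 by non-linear fit.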

Another assay concerns the target T2, recombinant human KDM4A (Homo sapiens, UniProt O75164).
T2 construct: made in house
T2 sequence (O75164 1-359 limits assumed): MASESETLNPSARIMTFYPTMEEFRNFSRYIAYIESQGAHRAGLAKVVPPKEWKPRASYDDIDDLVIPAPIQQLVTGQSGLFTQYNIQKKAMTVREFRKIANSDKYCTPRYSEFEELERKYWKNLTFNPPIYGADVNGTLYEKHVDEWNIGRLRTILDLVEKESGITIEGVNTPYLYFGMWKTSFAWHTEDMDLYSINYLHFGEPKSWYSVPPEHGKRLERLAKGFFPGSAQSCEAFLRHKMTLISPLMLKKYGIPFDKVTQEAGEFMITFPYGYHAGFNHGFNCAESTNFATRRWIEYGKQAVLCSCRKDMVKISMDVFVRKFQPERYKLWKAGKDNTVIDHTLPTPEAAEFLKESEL
Description: 14CO2 capture enzymatic assay (decarboxylation of [1-14C] αKG), KDM4A. The assay is classed as biochemical. To be noted: 10 μM [1-14C] αKG, 90 μM non-labeled αKG, 50 μM peptide substrate, 37° C., 1 hour, final 1% DMSO. Summed up: as §1

pIC50: −log10 of the molar value.

With `N#Cc1cc(-c2ccccc2Cl)cc(C(=O)CCC(=O)O)c1O` [Example 119, 4-(2′-Chloro-5-cyano-4-hydroxy-biphenyl-3-yl)-4-oxo-butyric acid], the negative-log IC50 (pIC50) on recombinant human KDM5B is 6.55; on recombinant human KDM4A, below 4.40.

For `N#Cc1cc(Cc2c(Cl)cccc2Cl)cc(C(=O)CCC(=O)O)c1O` [Example 121, 4-[3-Cyano-5-(2,6-dichloro-benzyl)-2-hydroxy-phenyl]-4-oxo-butyric acid], the pIC50 on recombinant human KDM5B was 7.10; at recombinant human KDM4A, below 4.40.

For `Cc1ccc(Cl)cc1-c1cc(C#N)c(O)c(C(=O)CCC(=O)O)n1` [Example 91, 4-[6-(5-Chloro-2-methyl-phenyl)-4-cyano-3-hydroxy-pyridin-2-yl]-4-oxo-butyric acid], the pIC50 is 6.77 at recombinant human KDM5B and below 4.40 at recombinant human KDM4A.

Take `N#Cc1cc(Cc2ccccc2)nc(C(=O)CCC(=O)O)c1O` [Example 10, 4-(6-Benzyl-4-cyano-3-hydroxy-pyridin-2-yl)-4-oxo-butyric acid]: the pIC50 was 6.80 on recombinant human KDM5B and below 4.40 at recombinant human KDM4A.

With `N#Cc1cc(-c2cccc3ccccc23)nc(C(=O)CCC(=O)O)c1O` [Example 68, 4-(4-Cyano-3-hydroxy-6-naphthalen-1-yl-pyridin-2-yl)-4-oxo-butyric acid], the pIC50 on recombinant human KDM5B is 6.55; at recombinant human KDM4A, below 4.40.

Take `N#Cc1cc(Cc2c(F)cccc2Cl)nc(C(=O)CCC(=O)O)c1O` [Example 30, 4-[6-(2-Chloro-6-fluoro-benzyl)-4-cyano-3-hydroxy-pyridin-2-yl]-4-oxo-butyric acid]: the pIC50 on recombinant human KDM5B was 6.60; at recombinant human KDM4A, 4.77.

As for `N#Cc1ccc(Cc2cc(C#N)c(O)c(C(=O)CCC(=O)O)n2)cc1` [Example 44, 4-[4-Cyano-6-(4-cyano-benzyl)-3-hydroxy-pyridin-2-yl]-4-oxo-butyric acid], the values for the negative logarithm of the IC50 (pIC50) on recombinant human KDM5B and at recombinant human KDM4A were 6.64 and below 4.40, respectively.

Take `N#Cc1cc(-c2ccc(C(F)(F)F)cc2)nc(C(=O)CCC(=O)O)c1O` [Example 26, 4-[4-Cyano-3-hydroxy-6-(4-trifluoromethyl-phenyl)-pyridin-2-yl]-4-oxo-butyric acid]: the pIC50 at recombinant human KDM5B is 6.70; on recombinant human KDM4A it was below 4.40.

As for `N#Cc1cc(Cc2c(Cl)cc(Cl)cc2Cl)cc(C(=O)CCC(=O)O)c1O` [Example 131, 4-[3-Cyano-2-hydroxy-5-(2,4,6-trichloro-benzyl)-phenyl]-4-oxo-butyric acid], the negative-log IC50 (pIC50) on recombinant human KDM5B is 7.30; on recombinant human KDM4A, below 4.40.

On to `COc1cccc(C(F)(F)F)c1Cc1cc(C#N)c(O)c(C(=O)CCC(=O)O)n1` [Example 61, 4-[4-Cyano-3-hydroxy-6-(2-methoxy-6-trifluoromethyl-benzyl)-pyridin-2-yl]-4-oxo-butyric acid], for which the pIC50 at recombinant human KDM5B was 6.24; on recombinant human KDM4A, below 4.40.

Take `N#Cc1cc(-c2cccc(C(F)(F)F)c2)nc(C(=O)CCC(=O)O)c1O` [Example 28, 4-[4-Cyano-3-hydroxy-6-(3-trifluoromethyl-phenyl)-pyridin-2-yl]-4-oxo-butyric acid]: the negative-log IC50 (pIC50) on recombinant human KDM5B is 6.70; at recombinant human KDM4A, below 4.40.

Consider `N#Cc1cc(Cc2c(F)cccc2F)nc(C(=O)CCC(=O)O)c1O` [Example 53, 4-[4-Cyano-6-(2,6-difluoro-benzyl)-3-hydroxy-pyridin-2-yl]-4-oxo-butyric acid], for which the pIC50 at recombinant human KDM5B is 6.60; at recombinant human KDM4A, below 4.40.

`N#Cc1cc(C#N)c(O)c(C(=O)CCC(=O)O)n1` [Example 3, 4-(4,6-Dicyano-3-hydroxy-pyridin-2-yl)-4-oxo-butyric acid]: the negative-log IC50 (pIC50) at recombinant human KDM5B is 6.96; on recombinant human KDM4A, 4.80.

For the compound `Cc1ccc(C#N)cc1-c1cc(C#N)c(O)c(C(=O)CCC(=O)O)n1` [Example 100, 4-[4-Cyano-6-(5-cyano-2-methyl-phenyl)-3-hydroxy-pyridin-2-yl]-4-oxo-butyric acid], the pIC50 at recombinant human KDM5B was 6.37; on recombinant human KDM4A it was below 4.40.

`N#Cc1cc(CC2CCCCC2)nc(C(=O)CCC(=O)O)c1O` [Example 33, 4-(4-Cyano-6-cyclohexylmethyl-3-hydroxy-pyridin-2-yl)-4-oxo-butyric acid]: the negative logarithm of the IC50 (pIC50) at recombinant human KDM5B was 6.38; at recombinant human KDM4A, below 4.40.

As to `N#Cc1cc(F)ccc1-c1cc(C#N)c(O)c(C(=O)CCC(=O)O)n1` [Example 87, 4-[4-Cyano-6-(2-cyano-4-fluoro-phenyl)-3-hydroxy-pyridin-2-yl]-4-oxo-butyric acid], the figures for the pIC50 on recombinant human KDM5B and at recombinant human KDM4A were 6.55 and below 4.40, respectively.

In the case of `N#Cc1cc(-c2cccc(Cl)c2)cc(C(=O)CCC(=O)O)c1O` [Example 120, 4-(3′-Chloro-5-cyano-4-hydroxy-biphenyl-3-yl)-4-oxo-butyric acid], the results for the negative-log IC50 (pIC50) at recombinant human KDM5B and at recombinant human KDM4A were 6.82 and below 4.40, respectively.

Consider `N#Cc1cc(Cc2cccc3ccccc23)nc(C(=O)CCC(=O)O)c1O` [Example 34, 4-(4-Cyano-3-hydroxy-6-naphthalen-1-ylmethyl-pyridin-2-yl)-4-oxo-butyric acid], for which the pIC50 at recombinant human KDM5B was 7.22; on recombinant human KDM4A, 4.92.

In the case of `N#Cc1cc(Cc2c(Cl)cccc2C#N)nc(C(=O)CCC(=O)O)c1O` [Example 58, 4-[6-(2-Chloro-6-cyano-benzyl)-4-cyano-3-hydroxy-pyridin-2-yl]-4-oxo-butyric acid], the pIC50 at recombinant human KDM5B was 6.74; on recombinant human KDM4A, 4.80.

As to `N#Cc1cc(Oc2ccc(F)cc2)nc(C(=O)CCC(=O)O)c1O` [Example 79, 4-[4-Cyano-6-(4-fluoro-phenoxy)-3-hydroxy-pyridin-2-yl]-4-oxo-butyric acid], the results for the pIC50 on recombinant human KDM5B and at recombinant human KDM4A were 6.64 and below 4.40, respectively.

Regarding `N#Cc1cc(-c2cccc(F)c2Cl)nc(C(=O)CCC(=O)O)c1O` [Example 107, 4-[6-(2-Chloro-3-fluoro-phenyl)-4-cyano-3-hydroxy-pyridin-2-yl]-4-oxo-butyric acid], the values for the negative-log IC50 (pIC50) at recombinant human KDM5B and at recombinant human KDM4A were 6.49 and below 4.40, respectively.

In the case of `N#Cc1cc(Cc2cc(Cl)ccc2Cl)nc(C(=O)CCC(=O)O)c1O` [Example 63, 4-[4-Cyano-6-(2,5-dichloro-benzyl)-3-hydroxy-pyridin-2-yl]-4-oxo-butyric acid], the negative-log IC50 (pIC50) is 6.62 on recombinant human KDM5B and 4.44 on recombinant human KDM4A.

Turning to `N#Cc1cc(-c2ccccc2Cl)nc(C(=O)CCC(=O)O)c1O` [Example 70, 4-[6-(2-Chloro-phenyl)-4-cyano-3-hydroxy-pyridin-2-yl]-4-oxo-butyric acid], the pIC50 at recombinant human KDM5B is 6.52; at recombinant human KDM4A, below 4.40.

Take `Cc1cccc(C)c1Cc1cc(C#N)c(O)c(C(=O)CCC(=O)O)c1` [Example 122, 4-[3-Cyano-5-(2,6-dimethyl-benzyl)-2-hydroxy-phenyl]-4-oxo-butyric acid]: the pIC50 at recombinant human KDM5B was 6.64; on recombinant human KDM4A, below 4.40.

As for `Cc1cccc(-c2cc(C#N)c(O)c(C(=O)CCC(=O)O)n2)c1C` [Example 92, 4-[4-Cyano-6-(2,3-dimethyl-phenyl)-3-hydroxy-pyridin-2-yl]-4-oxo-butyric acid], the results for the pIC50 on recombinant human KDM5B and at recombinant human KDM4A were 6.43 and below 4.40, respectively.

With `Cc1ccc(-c2cc(C#N)c(O)c(C(=O)CCC(=O)O)n2)cc1` [Example 73, 4-(4-Cyano-3-hydroxy-6-p-tolyl-pyridin-2-yl)-4-oxo-butyric acid], the negative logarithm of the IC50 (pIC50) at recombinant human KDM5B is 6.96; on recombinant human KDM4A, below 4.40.

Consider `N#Cc1cc(Cc2ccccc2OC(F)(F)F)nc(C(=O)CCC(=O)O)c1O` [Example 49, 4-[4-Cyano-3-hydroxy-6-(2-trifluoromethoxy-benzyl)-pyridin-2-yl]-4-oxo-butyric acid], for which the negative logarithm of the IC50 (pIC50) on recombinant human KDM5B is 6.57; on recombinant human KDM4A, below 4.40.

For the compound `Cc1cc(C(F)(F)F)ccc1-c1cc(C#N)c(O)c(C(=O)CCC(=O)O)n1` [Example 96, 4-[4-Cyano-3-hydroxy-6-(2-methyl-4-trifluoromethyl-phenyl)-pyridin-2-yl]-4-oxo-butyric acid], the figures for the pIC50 at recombinant human KDM5B and on recombinant human KDM4A were 6.51 and below 4.40, respectively.

Take `N#Cc1cc(-c2ccccc2F)nc(C(=O)CCC(=O)O)c1O` [Example 69, 4-[4-Cyano-6-(2-fluoro-phenyl)-3-hydroxy-pyridin-2-yl]-4-oxo-butyric acid]: the pIC50 at recombinant human KDM5B is 6.82; at recombinant human KDM4A, below 4.40.

Turning to `N#Cc1cc(Cc2c(Cl)cc(OC(F)(F)F)cc2Cl)nc(C(=O)CCC(=O)O)c1O` [Example 143, 4-[4-Cyano-6-(2,6-dichloro-4-trifluoromethoxy-benzyl)-3-hydroxy-pyridin-2-yl]-4-oxo-butyric acid], the negative logarithm of the IC50 (pIC50) on recombinant human KDM5B is 6.64; on recombinant human KDM4A, below 4.40.

Regarding `Cc1c(Cl)cccc1-c1cc(C#N)c(O)c(C(=O)CCC(=O)O)n1` [Example 89, 4-[6-(3-Chloro-2-methyl-phenyl)-4-cyano-3-hydroxy-pyridin-2-yl]-4-oxo-butyric acid], the pIC50 is 6.51 at recombinant human KDM5B and below 4.40 on recombinant human KDM4A.
